Where a SMILES comes first, the peptide text is derived from it. [ ]: non-standard residue; d: D form. Phe(4-CN) = N#Cc1ccc(C[C@H](N)C(=O)O)cc1; 3Pal = N[C@@H](Cc1cccnc1)C(=O)O; Aad = N[C@@H](CCCC(=O)O)C(=O)O; Cit = NC(=O)NCCC[C@H](N)C(=O)O; Aic = NC1(C(=O)O)Cc2ccccc2C1; Phg = N[C@H](C(=O)O)c1ccccc1; Ac8c = NC1(C(=O)O)CCCCCCC1; Ac7c = NC1(C(=O)O)CCCCCC1; Ac6c = NC1(C(=O)O)CCCCC1; Ac5c = NC1(C(=O)O)CCCC1; Deg = CCC(N)(CC)C(=O)O; Aib = CC(C)(N)C(=O)O

T1 sequence (P43220 24-463): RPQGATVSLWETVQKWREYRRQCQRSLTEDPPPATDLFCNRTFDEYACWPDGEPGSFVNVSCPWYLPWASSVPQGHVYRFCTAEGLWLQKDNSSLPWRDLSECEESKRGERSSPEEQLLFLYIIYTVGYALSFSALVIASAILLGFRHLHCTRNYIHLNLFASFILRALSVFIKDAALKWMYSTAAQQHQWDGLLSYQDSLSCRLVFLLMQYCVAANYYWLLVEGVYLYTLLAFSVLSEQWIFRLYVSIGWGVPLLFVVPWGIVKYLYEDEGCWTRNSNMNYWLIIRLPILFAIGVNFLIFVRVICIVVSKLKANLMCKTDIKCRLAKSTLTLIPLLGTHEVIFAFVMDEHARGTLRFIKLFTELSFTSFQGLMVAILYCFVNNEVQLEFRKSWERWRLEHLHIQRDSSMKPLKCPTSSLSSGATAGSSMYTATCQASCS

The assay addresses T1, human glucagon-like peptide-1 receptor (GLP-1R) (Homo sapiens, UniProt P43220).
T1 construct: host or cells: CHO chAMPion cells
Briefly: Human GLP-1 receptor cell-based assay (flash luminescence, Target Activation phase). The settings on record: CHO chAMPion cells stably co-expressing human GLP-1R, Photina and cAMP-activated calcium channel; agonist activity; normalization by forskolin at 10 μM; ^a) values from single experiment; read-out: EC50 (μM) Target Activation (TA). The essentials: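 CHO cells co-expressing human GLP-1R, photoprotein and a cAMP-gated Ca2+ channel, preloaded 4 h with coelenterazine and 500 μM IBMX. Compounds at 8 concentrations from 50 μM, quadruplicate; 30 min later 10 mM CaCl2 added and flash luminescence read. EC50 normalized to 10 μM forskolin or 3.16 nM GLP-1.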
Broadly, the EC50 is the concentration that produces a half-maximal response. On to `CC(C)C[C@@H]1NC(=O)[C@H](CCC(=O)O)NC(=O)[C@H](Cc2ccccc2)NC(=O)C2(CCCCC2)NC(=O)[C@H]2CCCN2C(=O)[C@H](Cc2ccc(O)cc2)NC(=O)[C@H](CCC(=O)O)NC(=O)[C@H](Cc2c[nH]c3ccccc23)NC(=O)[C@H](C)NC(=O)[C@H](Cc2ccc(C#N)cc2)NC1=O` [compound 37, cyclo(-Phe-Glu-Leu-Phe(4CN)-Ala-Trp-Glu-Tyr-^DPro-Chx-)] (cyclo(FEL[Phe(4-CN)]AWEY[dP][Ac6c])), for which the EC50 came to 0.88 µM.
On to `CC(C)C[C@@H]1NC(=O)[C@H](CCC(=O)O)NC(=O)[C@H](Cc2ccccc2)NC(=O)C2(CCCCC2)NC(=O)[C@H]2CCCN2C(=O)[C@H](Cc2ccc(O)cc2)NC(=O)[C@H](CCCNC(N)=O)NC(=O)[C@H](Cc2c[nH]c3ccccc23)NC(=O)[C@H](C)NC(=O)[C@H](Cc2ccc(O)cc2)NC1=O` [compound 38, cyclo(-Phe-Glu-Leu-Tyr-Ala-Trp-Cit-Tyr-^DPro-Chx-)] (cyclo(FELYAW[Cit]Y[dP][Ac6c])), for which the EC50 amounted to 0.93 µM.
As for `CC(C)C[C@@H]1NC(=O)[C@H](CCC(=O)O)NC(=O)[C@H](Cc2ccccc2)NC(=O)C2(CCCCC2)NC(=O)[C@H]2CCCN2C(=O)[C@H](Cc2c[nH]cn2)NC(=O)[C@H](CCC(=O)O)NC(=O)[C@H](Cc2c[nH]c3ccccc23)NC(=O)[C@H](C)NC(=O)[C@H](Cc2ccc(O)cc2)NC1=O` [compound 39, cyclo(-Phe-Glu-Leu-Tyr-Ala-Trp-G lu-H is-^DP ro-Chx-)] (cyclo(FELYAWEH[dP][Ac6c])), the half-maximal effective concentration (EC50) was found to be 1 ± 0.1 µM.
With `CC(C)C[C@@H]1NC(=O)[C@H](CCC(N)=O)NC(=O)[C@H](Cc2ccccc2)NC(=O)C2(CCCCC2)NC(=O)[C@H]2CCCN2C(=O)[C@H](Cc2ccc(O)cc2)NC(=O)[C@H](CCC(=O)O)NC(=O)[C@H](Cc2c[nH]c3ccccc23)NC(=O)[C@H](C)NC(=O)[C@H](Cc2ccc(O)cc2)NC1=O` [compound 40, cyclo(-Phe-Gln-Leu-Tyr-Ala-Trp-Glu-Tyr-^DPro-Chx-)] (cyclo(FQLYAWEY[dP][Ac6c])), the EC50 came to 1.2 ± 0.6 µM.
For the molecule `CC(C)C[C@@H]1NC(=O)[C@H](CCC(=O)O)NC(=O)[C@H](Cc2ccccc2)NC(=O)C2(CCCCC2)NC(=O)[C@H]2CCCN2C(=O)[C@H](Cc2cccnc2)NC(=O)[C@H](CCC(=O)O)NC(=O)[C@H](Cc2c[nH]c3ccccc23)NC(=O)[C@H](C)NC(=O)[C@H](Cc2ccc(O)cc2)NC1=O` [compound 41, cyclo(-Phe-Glu-Leu-Tyr-Ala-Trp-Glu-3Pal-^DPro-Chx-)] (cyclo(FELYAWE[3Pal][dP][Ac6c])), the EC50 was 0.83 ± 0.6 µM.
With `CC(C)C[C@@H]1NC(=O)[C@H](CCC(=O)O)NC(=O)[C@H](Cc2ccccc2)NC(=O)C2(CCCCC2)NC(=O)[C@H]2CCCN2C(=O)[C@H](CCCNC(=N)N)NC(=O)[C@H](CCC(=O)O)NC(=O)[C@H](Cc2c[nH]c3ccccc23)NC(=O)[C@H](C)NC(=O)[C@H](Cc2ccc(O)cc2)NC1=O` [compound 42, cyclo(-Phe-Glu-Leu-Tyr-Ala-Trp-Glu-Arg-^DPro-Chx-)] (cyclo(FELYAWER[dP][Ac6c])), the EC50 amounted to 2.2 ± 1 µM.
In the case of `CC(C)C[C@@H]1NC(=O)[C@H](CC(C)C)NC(=O)[C@H](CCC(=O)O)NC(=O)[C@H](Cc2ccccc2)NC(=O)C2(CCCC2)NC(=O)[C@H]2CCCN2C(=O)[C@H](Cc2ccccc2)NC(=O)[C@H](CCC(=O)O)NC(=O)[C@H](Cc2c[nH]c3ccccc23)NC(=O)[C@H](C)NC1=O` [compound 44, cyclo(-Phe-Glu-Leu-Leu-Ala-Trp-Glu-Phe-^DPro-Cyp-)] (cyclo(FELLAWEF[dP][Ac5c])), the EC50 is 2.9 ± 0.7 µM.
To `CC(C)C[C@@H]1NC(=O)[C@H](CC(C)C)NC(=O)[C@H](CCC(=O)O)NC(=O)[C@H](Cc2ccccc2)NC(=O)C(C)(C)NC(=O)[C@H]2CCCN2C(=O)[C@H](Cc2ccccc2)NC(=O)[C@H](CCC(=O)O)NC(=O)[C@H](Cc2c[nH]c3ccccc23)NC(=O)[C@H](C)NC1=O` [compound 45, cyclo(-Phe-Glu-Leu-Leu-Ala-Trp-Glu-Phe-^DPro-Aib-)] (cyclo(FELLAWEF[dP][Aib])) belongs 1.8 µM; to `CC(C)C[C@@H]1NC(=O)[C@H](CCC(N)=O)NC(=O)[C@H](Cc2c[nH]c3ccccc23)NC(=O)[C@H](Cc2ccccc2)NC(=O)C2(CCCC2)NC(=O)[C@H]2CCCN2C(=O)[C@H](Cc2ccccc2)NC(=O)[C@H](CCC(=O)O)NC(=O)[C@H](Cc2c[nH]c3ccccc23)NC(=O)[C@H](C)NC1=O` [compound 46, cyclo(-Phe-Trp-Gln-Leu-Ala-Trp-Glu-Phe-^DPro-Cyp-)] (cyclo(FWQLAWEF[dP][Ac5c])), 5.1 ± 1.4 µM; to `CCC1(CC)NC(=O)[C@H]2CCCN2C(=O)[C@H](Cc2ccccc2)NC(=O)[C@H](CCC(=O)O)NC(=O)[C@H](Cc2c[nH]c3ccccc23)NC(=O)[C@H](C)NC(=O)[C@H](CC(C)C)NC(=O)[C@H](CC(C)C)NC(=O)[C@H](CCC(=O)O)NC(=O)[C@H](Cc2ccccc2)NC1=O` [compound 47, cyclo(-Phe-Glu-Leu-Leu-Ala-Trp-Glu-Phe-^DPro-Deg-)] (cyclo(FELLAWEF[dP][Deg])), 2 µM.
On to `CC(C)C[C@@H]1NC(=O)[C@H](CCC(=O)O)NC(=O)[C@H](Cc2ccccc2)NC(=O)C2(CCCC2)NC(=O)[C@H]2CCCN2C(=O)[C@H](Cc2ccccc2)NC(=O)[C@H](CCC(=O)O)NC(=O)[C@H](Cc2c[nH]c3ccccc23)NC(=O)[C@H](C)NC(=O)[C@H](Cc2ccc(O)cc2)NC1=O` [compound 48, cyclo(-Phe-Glu-Leu-Tyr-Ala-Trp-Glu-Phe-^DPro-Cyp-)] (cyclo(FELYAWEF[dP][Ac5c])), for which the EC50 was 0.9 ± 0.18 µM.
With `CC(C)C[C@@H]1NC(=O)[C@H](CCC(N)=O)NC(=O)[C@H](Cc2ccccc2)NC(=O)C2(CCCCC2)NC(=O)[C@H]2CCCN2C(=O)[C@H](Cc2ccc(O)cc2)NC(=O)[C@H](CCCC(=O)O)NC(=O)[C@H](Cc2c[nH]c3ccccc23)NC(=O)[C@H](C)NC(=O)[C@H](Cc2ccc(O)cc2)NC1=O` [compound 49, cyclo(-Phe-Gln-Leu-Tyr-Ala-Trp-Hgl-Tyr-^DPro-Chx-)] (cyclo(FQLYAW[Aad]Y[dP][Ac6c])), the EC50 was 3.1 µM.
For `CC(C)C[C@@H]1NC(=O)[C@H](CCC(=O)O)NC(=O)[C@H](Cc2ccccc2)NC(=O)C2(CCCCC2)NC(=O)[C@H]2CCCN2C(=O)[C@H](c2ccccc2)NC(=O)[C@H](CCC(=O)O)NC(=O)[C@H](Cc2c[nH]c3ccccc23)NC(=O)[C@H](C)NC(=O)[C@H](Cc2ccc(O)cc2)NC1=O` [compound 50, cyclo(-Phe-Glu-Leu-Tyr-Ala-Trp-Glu-Phg-^DPro-Chx-)] (cyclo(FELYAWE[Phg][dP][Ac6c])) the value was 2.4 µM.
On to `CC(C)C[C@@H]1NC(=O)[C@H](Cc2c[nH]cn2)NC(=O)[C@H](Cc2ccccc2)NC(=O)C(C)(C)NC(=O)[C@H]2CCCN2C(=O)[C@H](Cc2ccc(O)cc2)NC(=O)[C@H](CCC(N)=O)NC(=O)[C@H](Cc2c[nH]c3ccccc23)NC(=O)[C@H](C)NC(=O)[C@H](Cc2ccc(O)cc2)NC1=O` [compound 51, cyclo(-Phe-His-Leu-Tyr-Ala-Trp-Gln-Tyr-^DPro-Aib-)] (cyclo(FHLYAWQY[dP][Aib])), for which the EC50 turned out to be 3.3 µM.
Consider `CC(C)C[C@@H]1NC(=O)[C@H](CC(C)C)NC(=O)[C@H](CCC(=O)O)NC(=O)[C@H](Cc2ccccc2)NC(=O)C2(Cc3ccccc3C2)NC(=O)[C@H]2CCCN2C(=O)[C@H](Cc2ccccc2)NC(=O)[C@H](CCC(=O)O)NC(=O)[C@H](Cc2c[nH]c3ccccc23)NC(=O)[C@H](C)NC1=O` [compound 52, cyclo(-Phe-Glu-Leu-Leu-Ala-Trp-Glu-Phe-^DPro-Ind-)] (cyclo(FELLAWEF[dP][Aic])), for which the EC50 was 0.82 ± 0.25 µM.
For `CC(C)C[C@@H]1NC(=O)[C@H](CC(C)C)NC(=O)[C@H](CCC(=O)O)NC(=O)[C@H](Cc2ccccc2)NC(=O)C2(CCCCCC2)NC(=O)[C@H]2CCCN2C(=O)[C@H](Cc2ccccc2)NC(=O)[C@H](CCC(=O)O)NC(=O)[C@H](Cc2c[nH]c3ccccc23)NC(=O)[C@H](C)NC1=O` [compound 53, cyclo(-Phe-Glu-Leu-Leu-Ala-Trp-Glu-Phe-^DPro-Ac7c-)] (cyclo(FELLAWEF[dP][Ac7c])), the EC50 came to 2.1 µM.
For `CC(C)C[C@@H]1NC(=O)[C@H](CC(C)C)NC(=O)[C@H](CCC(=O)O)NC(=O)[C@H](Cc2ccccc2)NC(=O)C2(CCCCCCC2)NC(=O)[C@H]2CCCN2C(=O)[C@H](Cc2ccccc2)NC(=O)[C@H](CCC(=O)O)NC(=O)[C@H](Cc2c[nH]c3ccccc23)NC(=O)[C@H](C)NC1=O` [compound 54, cyclo(-Phe-Glu-Leu-Leu-Ala-Trp-Glu-Phe-^DPro-Ac8c-)] (cyclo(FELLAWEF[dP][Ac8c])) the value was 1.1 µM.

Values taken from patent US10730911B2, “Backbone-cyclized peptidomimetics with GLP-1R modulating activity” (POLYPHOR AG, priority 2015, dated 2020).
